Test: in vitro
Conditions: human, hela cells, % viability
Compound COc1ccccc1CNCc1ccc(CNC(=O)OC(C)(C)C)cc1 [CBK056702] has a viability at 28.5 h, 10 µM of 100%.
CC(C)(C)OC(=O)NCc1ccc(CNCc2ccccc2C(F)(F)F)cc1 [CBK056703] showed a viability at 28.5 h, 10 µM of 92.2%.
Work on CC(C)(C)OC(=O)NCc1ccc(CNCc2cccc(Cl)c2)cc1 [CBK056704] yielded a viability at 28.5 h, 10 µM of 108%.
In the case of CC(C)(C)OC(=O)NCc1ccc(CNCc2cc(F)cc(F)c2)cc1 [CBK056707], the viability at 28.5 h, 10 µM is reported as 107%.
Work on COc1ccccc1CNCC1CCN(C(=O)OC(C)(C)C)CC1 [CBK056710] yielded a viability at 28.5 h, 10 µM of 96.4%.
COc1ccc(F)c(CNCC2CCN(C(=O)OC(C)(C)C)CC2)c1 [CBK056716] gave a viability at 28.5 h, 10 µM of 95.9%.
O=C(Nc1ccc(C(F)(F)F)cc1)N(Cc1ccc2ccccc2c1)CC1CCNCC1 [CBK056720] showed a viability at 28.5 h, 10 µM of 88.9%.
For Cc1noc(C)c1NC(=O)N(Cc1ccc(-c2ccccc2)cc1)CC1CCNCC1 [CBK056721], the viability at 28.5 h, 10 µM was 100%.
Work on Cn1c(C(=O)NCCN2CCOCC2)cc2oc(-c3ccccc3)nc2c1=O [CBK056726T] yielded a viability at 28.5 h, 10 µM of 87.8%.
For COc1ccc([C@@]23CC[C@@H](NS(=O)(=O)c4ccc5ccccc5c4)C[C@@H]2N(C)CC3)cc1OC [CBK056848T], the viability at 28.5 h, 10 µM was 96.8%.
Compound COc1ccc([C@@]23CC[C@@H](NC(=O)Nc4ccc(Cl)c(F)c4)C[C@@H]2N(C(C)C)CC3)cc1OC [CBK056852T] has a viability at 28.5 h, 10 µM of 99.2%.
In the case of CCOc1ccc(NCc2ccccc2NS(=O)(=O)c2ccc(C)cc2)cc1 [CBK056876], the viability at 28.5 h, 10 µM is reported as 93.6%.
With Cc1ccc(S(=O)(=O)Nc2ccccc2C(N)=O)cc1 [CBK056893] the viability at 28.5 h, 10 µM was 76%.
Compound O=C(NCn1nnc2ccccc21)c1ccccc1 [CBK056950] has a viability at 28.5 h, 10 µM of 93.6%.
Work on Cc1nc(C(F)(F)F)ccc1NC(=O)CSCC(=O)O [CBK056975] yielded a viability at 28.5 h, 10 µM of 93.3%.
O=C(CCN1CCOCC1)Nc1cc(Cl)cc(Cl)c1 [CBK057021] gave a viability at 28.5 h, 10 µM of 119%.
Nc1ccccc1C(=O)NCc1ccncc1 [CBK057024] gave a viability at 28.5 h, 10 µM of 90.1%.
Compound Cc1cc(NCn2nnc3ccccc32)ccc1Br [CBK057031] has a viability at 28.5 h, 10 µM of 88.2%.
Work on O=C(NC1CCN(Cc2c(F)cccc2Cl)CC1)c1cccs1 [CBK057035] yielded a viability at 28.5 h, 10 µM of 100%.
Compound Cc1ccc(SCC(=O)Nc2cc(C)on2)cc1 [CBK057070] has a viability at 28.5 h, 10 µM of 115%.
Compound COC(=O)c1ccsc1NC(=O)CN1CCNCC1 [CBK057080] has a viability at 28.5 h, 10 µM of 88.5%.
In the case of O=C(O)C1CCC1C(=O)N1CCN(c2nc3ccc(Cl)cc3s2)CC1 (centres unmarked) [CBK057108], the viability at 28.5 h, 10 µM is reported as 92.4%.
Work on O=C(NCc1sccc1Cl)Nc1cccc(Cl)c1 [CBK057110] yielded a viability at 28.5 h, 10 µM of 92.4%.
Work on Cn1nc(NC(=O)COCC(=O)O)c2ccccc21 [CBK057114] yielded a viability at 28.5 h, 10 µM of 98.8%.
Cn1nc(NC(=O)CC(C)(C)CC(=O)O)c2c(F)cccc21 [CBK057122] gave a viability at 28.5 h, 10 µM of 86.3%.
Compound Cc1nc(C(F)(F)F)ccc1C(=O)N1C=CC(C(F)(F)F)=NCC1 [CBK057187] has a viability at 28.5 h, 10 µM of 113%.
CSc1cccc(NC(=O)NCCN2CCNC2=O)c1 [CBK057191] showed a viability at 28.5 h, 10 µM of 103%.
For O=S(=O)(Nc1ccc(C(F)(F)F)cc1Cl)c1cc(Br)c(Cl)s1 [CBK057196], the viability at 28.5 h, 10 µM was 78.9%.
O=C(NCC(O)c1ccccc1)Nc1ccccc1 (centres unmarked) [CBK057227] gave a viability at 28.5 h, 10 µM of 95.2%.
With Cc1cc(C(=O)Nc2ccccc2N2CCOCC2)c(C)o1 [CBK057243] the viability at 28.5 h, 10 µM was 111%.
Compound Cc1oc(C(C)(C)C)cc1C(=O)Nc1ccc(C(F)(F)F)cc1 [CBK057251] has a viability at 28.5 h, 10 µM of 87%.
O=C(O)CSCC(=O)N1CCN(c2ccc(F)cc2)CC1 [CBK057269] showed a viability at 28.5 h, 10 µM of 98%.
CCOc1ccccc1NC(=O)Nc1cccc(S(N)(=O)=O)c1 [CBK057282] showed a viability at 28.5 h, 10 µM of 91.3%.
For COc1cc2c(cc1OC)C(C)N(S(=O)(=O)c1cn(C)cn1)CC2 (centres unmarked) [CBK057314], the viability at 28.5 h, 10 µM was 112%.
In the case of O=C(O)C1CCN(C(=O)c2ccc3nsnc3c2)CC1 [CBK057344], the viability at 28.5 h, 10 µM is reported as 99.8%.
Cc1cc(C(=O)N(C)C2CCCCC2)no1 [CBK057375] gave a viability at 28.5 h, 10 µM of 113%.
In the case of O=C(O)CCC(=O)NCC(=O)c1ccc(F)cc1 [CBK057384], the viability at 28.5 h, 10 µM is reported as 76.6%.
Work on O=S(=O)(NCC1COc2ccccc2O1)c1cc(Cl)sc1Cl (centres unmarked) [CBK057394] yielded a viability at 28.5 h, 10 µM of 85.4%.
In the case of CC(C)c1ccc(NC(=O)C2=NNC(=O)CC2)cc1 [CBK057421], the viability at 28.5 h, 10 µM is reported as 96.5%.
O=S(=O)(NCCc1c[nH]c2ccccc12)c1cccc2nsnc12 [CBK057456] showed a viability at 28.5 h, 10 µM of 83.4%.
CCOc1ccccc1NC(=O)NCCSCc1ccco1 [CBK057501] gave a viability at 28.5 h, 10 µM of 94.5%.
Work on O=C(Nc1ccc2nonc2c1)N1CCOCC1 [CBK057530] yielded a viability at 28.5 h, 10 µM of 90.8%.
With Cn1ccnc1SCC(=O)Nc1ccc(I)cc1 [CBK057541] the viability at 28.5 h, 10 µM was 85.3%.
For O=C(O)CSCC(=O)Nc1ccc(Cl)cn1 [CBK057543], the viability at 28.5 h, 10 µM was 86.5%.
Work on CC(C)SCC(=O)Nc1ccc(Br)cc1 [CBK057618] yielded a viability at 28.5 h, 10 µM of 102%.
Work on COc1ccc(NC(=O)c2cc(C(F)(F)F)cc(C(F)(F)F)c2)cn1 [CBK057634] yielded a viability at 28.5 h, 10 µM of 85.1%.
Compound COC(=O)CNC(=O)c1nc(SC)ncc1Cl [CBK057651] has a viability at 28.5 h, 10 µM of 107%.
CCOC(=O)NC(NCc1ccco1)(C(F)(F)F)C(F)(F)F [CBK057654] gave a viability at 28.5 h, 10 µM of 102%.
CCCCc1ccc(NC(=O)CSc2nnc(N)s2)c(C)c1 [CBK057659] gave a viability at 28.5 h, 10 µM of 91.9%.
For O=C(Nc1ccccc1)c1cc2sccc2s1 [CBK057696], the viability at 28.5 h, 10 µM was 87.9%.
CCOC(=O)CNc1ccc(C(F)(F)F)cc1 [CBK057732] gave a viability at 28.5 h, 10 µM of 94.4%.
With CC(=O)c1ccccc1NC(=O)CSCC(=O)O [CBK057752] the viability at 28.5 h, 10 µM was 92.2%.
Work on CC(=O)c1ccccc1NC(C#N)c1ccccc1 (centres unmarked) [CBK057758] yielded a viability at 28.5 h, 10 µM of 99.6%.
For O=C(Nc1cc(Cl)cc(Cl)c1)c1csnn1 [CBK057759], the viability at 28.5 h, 10 µM was 88.1%.
With CCOC(=O)c1csc(COc2ccccc2Cl)n1 [CBK057782] the viability at 28.5 h, 10 µM was 113%.
O=C(Nc1ccno1)Nc1ccc(Cl)cc1Cl [CBK057809] gave a viability at 28.5 h, 10 µM of 94.6%.
In the case of CSc1nnc(SCC(=O)N2CCC(C(F)(F)F)CC2)s1 [CBK057829], the viability at 28.5 h, 10 µM is reported as 111%.
Compound CCOC(=O)c1sc(NC(=O)C2CCCCC2)nc1C [CBK057893] has a viability at 28.5 h, 10 µM of 92.3%.
CCOc1ccccc1NC(=O)c1cc(CC(C)C)oc1C [CBK057904] gave a viability at 28.5 h, 10 µM of 101%.
With O=C(CC1SC(=O)NC1=O)Nc1ccccc1O (centres unmarked) [CBK057932] the viability at 28.5 h, 10 µM was 98.5%.
For CCc1cc2c(NCc3ccccc3)ncnc2s1 [CBK057944], the viability at 28.5 h, 10 µM was 91.4%.
With CC1CC(Nc2ccccc2)c2ccccc2N1 (centres unmarked) [CBK057947] the viability at 28.5 h, 10 µM was 86.6%.
In the case of CCC(C)c1ccc(NC(=O)c2cccnc2)cc1 (centres unmarked) [CBK057967], the viability at 28.5 h, 10 µM is reported as 85.9%.
COC(=O)C(CCSC)NC(=O)c1cccs1 (centres unmarked) [CBK057972] gave a viability at 28.5 h, 10 µM of 94%.
With CCCC(C)C(=O)Nc1ccncc1 (centres unmarked) [CBK057984] the viability at 28.5 h, 10 µM was 87.1%.
For O=C(O)CC(NC(=O)c1ccco1)c1ccc(F)cc1 (centres unmarked) [CBK057988], the viability at 28.5 h, 10 µM was 107%.
For NS(=O)(=O)c1cnccc1NCCc1ccccc1 [CBK058003], the viability at 28.5 h, 10 µM was 103%.
For O=C(Nc1nccs1)c1cccc(Cl)c1Cl [CBK058011], the viability at 28.5 h, 10 µM was 112%.
Cc1nnc(N/N=C/c2ccc(OC3CCCC3)cc2)nc1O [CBK058025] gave a viability at 28.5 h, 10 µM of 104%.
N=C(N)CCCOc1ccccc1-c1ccccc1 [CBK058057] showed a viability at 28.5 h, 10 µM of 100%.
In the case of Nc1nc(-c2ccccc2)c(C(=O)Nc2ccccc2)s1 [CBK058068], the viability at 28.5 h, 10 µM is reported as 95.2%.

Reference: PMC12040169 (PLOS Biology, 2025)
